Legend:
CHO cell sialidase [1] = target: T1, CHO cell sialidase (Cricetulus griseus, UniProt Q64393); test: Sialidase activity toward gangliosides and colominic acid (thiobarbiturate assay); format: biochemical, Chinese hamster; design: key to Relative Activity: NR: no reaction products detected; conditions: for ganglioside hydrolysis in words: cholic acid as solubilizing agent; for Relative Activity: substrate 4 mM, initial rate, pH 6.0, cholic acid (0.05%) with lipid substrates, α-2,3 sialyllactose = 100
T1 construct: The sialidase described was purified from the cell culture fluid of a single production cell line (CHO 14.16); endogenous in cells; host or cells: CHO 14.16 cells (purified from the cell culture fluid)
T1 sequence (Q64393 whole entry): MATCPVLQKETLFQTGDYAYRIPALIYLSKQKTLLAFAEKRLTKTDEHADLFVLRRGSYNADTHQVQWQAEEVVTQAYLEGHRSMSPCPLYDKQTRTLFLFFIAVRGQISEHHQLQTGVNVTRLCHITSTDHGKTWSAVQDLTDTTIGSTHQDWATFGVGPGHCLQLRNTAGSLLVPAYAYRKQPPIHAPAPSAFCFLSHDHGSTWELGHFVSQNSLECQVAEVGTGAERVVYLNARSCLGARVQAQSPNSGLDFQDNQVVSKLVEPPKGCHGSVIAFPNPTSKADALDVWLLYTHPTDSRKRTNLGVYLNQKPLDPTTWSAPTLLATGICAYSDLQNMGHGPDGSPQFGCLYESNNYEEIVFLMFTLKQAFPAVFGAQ
Method: (§1) Sialidase assays with natural substrates: When natural substrates are tested with the purified enzyme, the amount of released sialic acid is measured using the thiobarbituric acid assay as modified by Uchida [Uchida et al. J. Biochem., 82:1425 (1977)] using sialic acid as standard. The amount of sialic acid in control samples, which include a complete assay mixture incubated without added enzyme is subtracted from each determination. All samples are cleared by centrifugation (1,000×G, 10 min) prior to determining the absorbance at 540 nm.
Some gangliosides are degraded by the sialidase (TABLE III), although these substrates require the presence of cholic acid as a solubilizing agent in the assay for optimal activity.

[2] = system: lysosomal sialidase (fibroblasts); conditions: cited from earlier work
CHO cell sialidase [3] = target: T1, CHO cell sialidase; test: Inhibition of CHO cell sialidase (competitive inhibitor study); format: biochemical, Chinese hamster
[4] = system: plasma membrane sialidase (adenovirus transformed kidney cells); conditions: cited from earlier work
[5] = target: cytosolic sialidase from rat muscle; conditions: cytosol, previously reported data, unit from footnote c; cited from earlier work
CHO cell sialidase [6] = target: T1, CHO cell sialidase; test: Sialidase kinetic constants with soluble sialylglycoconjugate substrates; format: biochemical, Chinese hamster; conditions: for substrate cleavage in words: purified enzyme
Method: Fluorescent sialidase assays: Standard assay conditions for monitoring the enzyme activity during purification using the fluorescent substrate analog are: 1.3 mM 4-MUNeu5Ac, 50 mM phosphate buffer, pH 6.8, 0.3 mg bovine serum albumin and varying amounts of enzyme in a total volume of 30 μl. After addition of enzyme the samples are incubated at 37° C. in a shaking water bath for 5 minutes. The reaction is terminated and the fluorescence of the liberated umbelliferone is enhanced by the addition of 2 ml of 80 mM glycine-carbonate buffer, pH 9.7. Quantification of the product is made by measuring the fluorescence of the samples with excitation at 365 nm and emission at 450 nm using a standard of 4-methyl umbelliferone. A unit of enzyme activity is defined as a μmol/min of sialic acid liberated.
as §1
Enzyme kinetic parameters: Assay conditions (time and added enzyme) are modified for each substrate so that initial reaction rates are measured. Kinetic parameters are obtained from double reciprocal plots of the substrate saturation curves [Segel, I. H. John Wiley, New York, Enzyme Kinetics, 18 (1975)].
Substrate specificity: Several classes of sialyl glycoconjugates were tested as substrates, TABLE II. […] Transferrin is isolated from human serum and contains only 2,6 linked sialic acid residues [Baenziger, J. U. The Plasma Proteins 2nd Ed. (Putnam, F. W., ed.) 272-398, Academic Press, New York (1984)].

Compound	ganglioside hydrolysis in words (CHO cell sialidase [1])	Relative Activity (CHO cell sialidase [1])	substrate cleavage in words (CHO cell sialidase [6])	other results
II^3 NeuAc-GgOse3 Cer [GM2]	not substrates	NR	–	–
II^3 NeuAc-LacCer [GM3]	hydrolyzed at comparable rates	29%	–	–
II^3 (NeuAc)2 -GgOse4 Cer [GD1b]	not substrates	NR	–	–
II^3 NeuAc-GgOse4 Cer [GM1]	not substrates	NR	–	–
CC(=O)N[C@H]1[C@H]([C@H](O)[C@H](O)CN=[N+]=[N-])OC(C(=O)O)=C[C@@H]1O [9-azido-Neu5Ac2en, 5-acetamido-2,6-anhydro-9-azido-3,5,9-trideoxy-D-glycero-D-galacto-non-2-enonic acid]	–	–	–	inhibition in words [2]: strongly inhibited; inhibition in words (CHO cell sialidase [3]): moderately inhibited; Ki ([4]; adenovirus transformed kidney cells, plasma membrane, previously reported data, unit from footnote c): 10 µM; inhibition in words ([4]; plasma membrane sialidase): strongly inhibited; Ki [5]: 50 µM
CC(=O)N[C@H]1[C@H]([C@H](O)[C@H](O)CO)O[C@@](O[C@H](CO)[C@@H](O)[C@@H]2OC(O)(C(=O)O)C[C@H](O)[C@H]2NC(C)=O)(C(=O)O)C[C@@H]1O (some centres unmarked) [Sialic acid dimer]	–	–	substrates for the enzyme	–
IV^3 NeuAc, II^3 (NeuAc)2 -GgOse4 Cer [GT1b]	hydrolyzed at comparable rates	23%	–	–
CC(=O)N[C@H]1[C@H]([C@H](O)[C@H](O)CO)O[C@@](O[C@H]2[C@@H](O)[C@@H](CO)O[C@@H](O[C@H]3[C@H](O)[C@@H](O)C(O)O[C@@H]3CO)[C@@H]2O)(C(=O)O)C[C@@H]1O (some centres unmarked) [sialyl lactose]	–	–	readily cleaved	–
IV^3 NeuAc, II^3 NeuAc-GgOse4 Cer [GD1a]	hydrolyzed at comparable rates	21%	–	–
CC(=O)N[C@H]1[C@H]([C@H](O)[C@H](O)CO)O[C@@](O[C@H]2[C@@H](O)[C@@H](CO)O[C@@H](O[C@H]3[C@H](O)[C@@H](O)C(O)O[C@@H]3CO)[C@@H]2O)(C(=O)O)C[C@@H]1O (stereo partly drawn) [α-2,3 Sialyllactose]	–	100%	–	–
Transferrin: isolated from human serum and contains only 2,6 linked sialic acid residues	–	–	cleaved much more slowly than that bound to recombinant human deoxyribonuclease I	Vmax (CHO cell sialidase [6]; apparent, standard assay conditions, average of duplicates, relative error about 10%): 2 µmol/min/mg; Km values compared (in words) (CHO cell sialidase [6]; transferrin versus deoxyribonuclease I): nearly identical
CC(=O)N[C@H]1[C@H]([C@H](O)[C@H](O)CSc2ccc(N=[N+]=[N-])cc2[N+](=O)[O-])OC(C(=O)O)=C[C@@H]1O [9-PANP-Neu5Ac2en, 9-S-(4'-azido-2'-nitro-phenyl)-5-acetamido-2,6 anhydro-9-thio-2,5,9-trideoxy-D-glycero-D-galacto-non-2-enonic acid]	–	–	–	inhibition in words (CHO cell sialidase [3]): weakly inhibited
Colominic Acid	–	4%	hydrolyzed but at substantially reduced rates	–

— US5928915A, “CHO cell sialidase by recombinant DNA technology” (Genentech, Inc., priority 1997, dated 1999)
